Reference: patent US20150266850A1 (E.I.DU PONT DE NEMOURS AND COMPANY, priority 2012, published 2015)
Marks after values point to notes of the source that are not given here.

How the values were obtained:
Type in all cases: in vivo
Conditions in all cases: 100 = 100% disease control
[1] = system: Erysiphe graminis f. sp. tritici; experiment: Test A: wheat powdery mildew, preventive spray on wheat seedlings, visual disease rating
Description: (§1) General protocol for preparing test suspensions for Tests A-E: the test compounds were first dissolved in acetone in an amount equal to 11% of the final volume and then suspended at the desired concentration (in ppm) in acetone and purified water (50/50 mix by volume) containing 250 ppm of the surfactant Trem® 014 (polyhydric alcohol esters). The resulting test suspensions were then used in Tests A-E. Spraying a 200 ppm test suspension to the point of run-off on the test plants was the equivalent of a rate of 800 g/ha.
The test suspension was sprayed to the point of run-off on wheat seedlings. The following day the seedlings were inoculated with a spore dust of Erysiphe graminis f. sp. tritici, (the causal agent of wheat powdery mildew) and incubated in a growth chamber at 20° C. for 8 days, after which time disease ratings were visually made.
(§2) Results for Tests A-E are given in Table A. In the Table, a rating of 100 indicates 100% disease control and a rating of 0 indicates no disease control (relative to the controls). A dash (-) indicates no test results. All results are for 200 ppm except where followed by an “*”, which indicates 40 ppm or “**”, which indicates 50 ppm.

[2] = system: Puccinia recondita f sp. tritici; experiment: Test B: wheat leaf rust, preventive spray on wheat seedlings, visual disease rating
Description: as §1
The test suspension was sprayed to the point of run-off on wheat seedlings. The following day the seedlings were inoculated with a spore suspension of Puccinia recondita f sp. tritici (the causal agent of wheat leaf rust) and incubated in a saturated atmosphere at 20° C. for 24 h, and then moved to a growth chamber at 20° C. for 7 days, after which time disease ratings were visually made.
as §2

Septoria tritici = experiment: Test C: wheat leaf blotch, preventive spray on wheat seedlings, visual disease rating
Description: as §1
(§3) The test suspension was sprayed to the point of run-off on wheat seedlings. The following day the seedlings were inoculated with a spore suspension of Septoria tritici (the causal agent of wheat leaf blotch) and incubated in a saturated atmosphere at 24° C. for 48 h, and then moved to a growth chamber at 20° C. for 19 days, after which time disease ratings were visually made.
as §2

Septoria nodorum = experiment: Test D: wheat glume blotch, preventive spray on wheat seedlings, visual disease rating
Description: as §1
as §3, with “nodorum” for “tritici”, “glume” for “leaf”, “20°” for “24°”, “7” for “19”
as §2

Botrytis cinerea = experiment: Test E: tomato botrytis, preventive spray on tomato seedlings, visual disease rating
Description: as §1
The test suspension was sprayed to the point of run-off on tomato seedlings. The following day the seedlings were inoculated with a spore suspension of Botrytis cinerea (the causal agent of tomato botrytis) and incubated in saturated atmosphere at 20° C. for 48 h, and then moved to a growth chamber at 27° C. for 3 additional days, after which time disease ratings were visually made.
as §2

Molecule | Test A disease control rating ([1]; 200 ppm) [%] | Test B disease control rating ([2]; 200 ppm) [%] | Test C disease control rating (Septoria tritici; 200 ppm) [%] | Test D disease control rating (Septoria nodorum; 200 ppm) [%] | Test E disease control rating (Botrytis cinerea; 200 ppm) [%] | Test A disease control rating ([1]; 40 ppm (*)) | Test B disease control rating ([2]; 40 ppm (*)) | Test D disease control rating (Septoria nodorum; 40 ppm (*)) | Test E disease control rating (Botrytis cinerea; 40 ppm (*)) | further results
COC(=O)NCc1cc(-n2ncc(-c3ccc(C)cc3OC)n2)ccc1C [Cmpd 7] | 100 | 100 | 100 | 100 | 26 | – | – | – | – | –
COC(=O)NCc1cc(-n2ccc(-c3ccc(OC)cc3F)n2)ccc1C [Cmpd 9] | 100 | 100 | 99 | 100 | 87 | – | – | – | – | –
COC(=O)NCc1cc(-n2ccc(-c3ccc(C)cc3OC)n2)ccc1C [Cmpd 12] | 100 | 100 | 97 | 100 | 95 | – | – | – | – | –
COC(=O)NCc1cc(-n2ccc(-c3ccc(OC)cc3Cl)n2)ccc1C [Cmpd 13] | 100 | 100 | 100 | 100 | 99 | – | – | – | – | –
COC(=O)NCc1cc(-n2ccc(-c3ccc(F)cc3OC)n2)ccc1C [Cmpd 14] | 100 | 100 | 100 | 100 | 97 | – | – | – | – | –
COC(=O)NCc1cc(-c2ccn(-c3ccc(SC)cc3OC)n2)ccc1C [Cmpd 15] | 96 | 100 | 77 | 100 | 64 | – | – | – | – | –
COC(=O)NCc1cc(-c2ccn(-c3ccc(OC)cc3SC)n2)ccc1C [Cmpd 16] | 97 | 100 | 85 | 100 | 97 | – | – | – | – | –
COC(=O)NCc1cc(-c2ccn(-c3ccc(OC)cc3F)n2)ccc1C [Cmpd 19] | 100 | 100 | 100 | – | 37 | – | – | – | – | –
COC(=O)NCc1cc(-c2ccn(-c3ccc(OC)cc3C#N)n2)ccc1C [Cmpd 21] | 96 | 100 | 98 | 100 | 66 | – | – | – | – | –
COC(=O)NCc1cc(-c2ccn(-c3ccc(OC)cc3[N+](=O)[O-])n2)ccc1C [Cmpd 22] | 0 | 100 | 100 | 100 | 85 | – | – | – | – | –
CCc1cc(OC)ccc1-n1ccc(-c2ccc(C)c(CNC(=O)OC)c2)n1 [Cmpd 26] | 99 | 100 | 100 | 100 | 31 | – | – | – | – | –
COC(=O)NCc1cc(-c2ccn(-c3ccc(F)cc3OC)n2)ccc1C [Cmpd 27] | 100 | 100 | 100 | 100 | 54 | – | – | – | – | –
COC(=O)NCc1cc(-c2ccn(-c3ccc(C)cc3OC)n2)ccc1C [Cmpd 29] | 99 | 100 | 100 | 100 | 63 | – | – | – | – | –
COC(=O)NCc1cc(-n2ccc(-c3ccc(F)cc3F)n2)ccc1C [Cmpd 30] | 100 | 100 | 100 | 100 | 0 | – | – | – | – | –
C#Cc1cc(OC)ccc1-c1cnn(-c2ccc(C)c(CNC(=O)OC)c2)n1 [Cmpd 47] | – | – | – | – | – | 99* % | 100* % | 100* % | 0* % | –
COC(=O)NCc1cc(-n2ncc(-c3ccc(OC)cc3OCC#N)n2)ccc1C [Cmpd 73] | – | – | – | – | – | 99* % | 100* % | 100* % | 0* % | –

Molecule | Test A disease control rating ([1]; 200 ppm) [%] | Test B disease control rating ([2]; 200 ppm) [%] | Test C disease control rating (Septoria tritici; 200 ppm) [%] | Test D disease control rating (Septoria nodorum; 200 ppm) [%] | Test E disease control rating (Botrytis cinerea; 200 ppm) [%] | Test A disease control rating ([1]; 40 ppm (*)) | Test B disease control rating ([2]; 40 ppm (*)) | Test D disease control rating (Septoria nodorum; 40 ppm (*)) | Test E disease control rating (Botrytis cinerea; 40 ppm (*)) | further results
C#CCOc1cc(OC)ccc1-c1cnn(-c2ccc(C)c(CNC(=O)OC)c2)n1 [Cmpd 74] | – | – | – | – | – | 98* % | 100* % | 100* % | 8* % | –
C=CCOc1cc(OC)ccc1-c1cnn(-c2ccc(C)c(CNC(=O)OC)c2)n1 [Cmpd 75] | – | – | – | – | – | 90* % | 100* % | 100* % | 8* % | –
COC(=O)NCc1cc(-n2ccc(-c3ccc(OC)cc3C3CC3)n2)ccc1C [Cmpd 82] | – | – | – | – | – | 99* % | 100* % | 100* % | 0* % | –
CCc1cc(OC)ccc1-c1ccn(-c2ccc(C)c(CNC(=O)OC)c2)n1 [Cmpd 83] | – | – | – | – | – | 99* % | 100* % | 100* % | 0* % | –
COC(=O)NCc1cc(-n2ncc(-c3ccc(OC)cc3[N+](=O)[O-])n2)ccc1C [Cmpd 85] | – | – | – | – | – | 99* % | 100* % | 100* % | 0* % | –
CCOc1cc(OC)ccc1-c1cnn(-c2ccc(C)c(CNC(=O)OC)c2)n1 [Cmpd 88] | – | – | – | – | – | 100* % | 100* % | 100* % | 0* % | –
COC(=O)NCc1cc(-n2ccc(-c3ccc(I)cc3Cl)n2)ccc1C [Cmpd 92] | – | – | – | – | – | 99* % | 100* % | 100* % | 33* % | –
COC(=O)NCc1cc(-c2ccn(-c3ccc(C#N)cc3C#N)n2)ccc1C [Cmpd 93] | 0 | 0 | – | 64 | 0 | – | – | – | – | –
COC(=O)NCc1cc(-n2ncc(-c3ccc(I)cc3OC)n2)ccc1C [Cmpd 95] | – | – | – | – | – | 98* % | 100* % | 100* % | 0* % | –
COC(=O)NCc1cc(-n2ncc(-c3ccc(OC)cc3I)n2)ccc1C [Cmpd 96] | – | – | – | – | – | 99* % | 100* % | 100* % | 70* % | –
COC(=O)NCc1cc(-n2ncc(-c3ccc(C)cc3OCC#N)n2)ccc1C [Cmpd 98] | – | – | – | – | – | 95* % | 100* % | 100* % | 6* % | –
C#Cc1ccc(-c2cnn(-c3ccc(C)c(CNC(=O)OC)c3)n2)c(OC)c1 [Cmpd 99] | – | – | – | – | – | 99* % | 100* % | 100* % | 14* % | –
COC(=O)NCc1cc(-n2ncc(-c3ccc(OC)cc3I)[n+]2[O-])ccc1C [Compound 94] | – | – | – | – | – | – | – | – | – | pest or weed control at 40 ppm ([1]; Blumeria graminis, 192 h, 40 ppm (*)): 98%; pest or weed control at 40 ppm ([2]; 192 h, 40 ppm (*)): 100%; pest or weed control at 40 ppm (Septoria nodorum; Parastagonospora nodorum, 216 h, 40 ppm (*)): 100%; pest or weed control at 40 ppm (Botrytis cinerea; Botrytis cinerea, 120 h, 40 ppm (*)): 11%
COC(=O)NCc1cc(-n2ncc(-c3ccc(C)cc3C)n2)ccc1C [Compound 97] | – | – | – | – | – | 99* % | 100* % | 100* % | 43* % | –
methyl N-[[5-[3-(6-methoxy-2-methyl-3-pyridinyl)-1H-pyrazol-1-yl]-2-methylphenyl]methyl]carbamate [Compound 115] | – | – | – | – | – | 100* % | 100* % | 100* % | – | Test C disease control rating (Septoria tritici; 40 ppm (*)): 99* %
